Measurements reported in patent US11759411B2, “Non-therapeutic use of a biodegradable hydrocarbon oil” (TOTAL MARKETING SERVICES, priority 2017, dated 2023).
Marks after values point to notes of the source that are not given here.

Legend:
HaCaT cells [1] = assay: H2DCF-DA test, production of ROS after oil then preservative (POE or MIT); format: cell-based
Experimental: (§1) The following standards and methods were used to measure the properties hereinabove: • flash point: EN ISO 2719 • density at 15° C.: EN ISO 1185 • viscosity at 40° C.: EN ISO 3104 • aniline point: EN ISO 2977 • boiling point: ASTM D86 • biodegradability: OECD method 306 • refractive index at 20° C.: ASTM D 1218 • vapour pressure: calculated according to methods well known to those skilled in the art Tests for Anti-Wrinkle or Anti-Ageing Cosmetic Applications Preparation of the Tests: • Preparation of the microplates: 24 hours before the incubation with the oils A and B, the HaCaT cells are inoculated with a cell density of 100,000 cells/ml in 96-well microplates (Corning). […]
The cellular effects are evaluated directly on the adherent living cells by cytofluorimetric microtitration (MiFALC tests-Microtitration Fluorimetric Assays on Live Cells). The microplate reader used in the study is the Safire cytometer (Tecan).
The test H2DCF-DA (2′,7′-dihydrodichlorofluoresceine diacetate) is used in order to evaluate the production of reactive oxygen species. […] Thus, an increase in the intensity of fluorescence is combined with an increase in the production of reactive oxygen species (ROS) and by extrapolation with an increase in the oxidative stress in the cells studied.
Preservatives, used as an additive in cosmetic compositions, were evaluated. […]

HaCaT cells [2] = assay: HOECHST 33342 test, condensation of the chromatin; format: cell-based; conditions: one hour with oil or CM, then 20 minutes with BAC 8 ppm by weight, HOECHST 33342, HaCat cells
Experimental: as §1, with “(Corning). The microplates are then placed in the incubator at 37° C. In a microplate, each condition was tested at least three times. Each experiment was carried out at least three times independently in order to validate the reproducibility of the results and to carry out statistical analyses. • Incubation of cells with the oils A or B: two durations of incubation were selected for the products to be tested pure: an incubation for fifteen minutes and an incubation for one hour.” for “(Corning).”
The cellular effects are evaluated directly on the adherent living cells by cytofluorimetric microtitration (MiFALC tests-Microtitration Fluorimetric Assays on Live Cells). The microplate reader used in the study is the Safire cytometer (Tecan). […]

Compound: Cn1sccc1=O [MIT, methylisothiazolinone]
- Production of ROS (HaCaT cells [1]; oil or none, then MIT): 135 % relative to the CM

Compound: benzalkonium chloride [CM + BAC]
- Measurement of the condensation of the chromatin (HaCaT cells [2]): 138*** % relative to the CM

Compound: phenoxyethanol [CM + POE]
- Production of ROS (HaCaT cells [1]; oil or CM (e.g. 15 minutes) then POE (e.g. 30 minutes, phenoxyethanol 250 μg/mL)): 132 % relative to the CM
